Results as given in ChEMBL document CHEMBL4308894, “Synthesis and evaluation of biological activity for dual-acting antibiotics on the basis of azithromycin and glycopeptides” (Bioorg Med Chem Lett, 2019).
≈ marks a conversion by molar mass, not a printed value. Calls of active or inactive are those of the source. No cut-off for these calls is given here.

Columns and labels:
Escherichia coli [1] = assay: Induction of translation arrest in tolC-deficient Escherichia coli harboring pRFPCER-TrpL2A assessed as increase in pRFPCER-TrpL2A reporter activity at 10 mg/ml after overnight incubation by dual fluorescent-reporter gene assay; format: functional, organism-based
Staphylococcus aureus [2] = assay: Antibacterial activity against Staphylococcus aureus ATCC 25923 by micro dilution method; format: functional
[3] = test system: Staphylococcus epidermidis; assay: Antibacterial activity against Staphylococcus epidermidis isolate 533 by micro dilution method; format: functional
Staphylococcus aureus [4] = assay: Antibacterial activity against Staphylococcus aureus isolate 10 by micro dilution method; format: functional
Staphylococcus aureus [5] = assay: Antibacterial activity against Staphylococcus aureus isolate 3797 by micro dilution method; format: functional
Staphylococcus aureus [6] = assay: Antibacterial activity against Staphylococcus aureus isolate 3798 by micro dilution method; format: functional
Staphylococcus aureus [7] = assay: Antibacterial activity against Staphylococcus aureus isolate 1025 by micro dilution method; format: functional
Enterococcus faecium [8] = assay: Antibacterial activity against Enterococcus faecium isolate 568 by micro dilution method; format: functional
Enterococcus faecium [9] = assay: Antibacterial activity against Enterococcus faecium isolate 569 by micro dilution method; format: functional
Enterococcus faecalis = assay: Antibacterial activity against Enterococcus faecalis isolate 560 by micro dilution method; format: functional
Streptococcus pneumoniae = assay: Antibacterial activity against Streptococcus pneumoniae ATCC 49619 by micro dilution method; format: functional
Enterococcus gallinarum = assay: Antibacterial activity against Streptococcus gallinarum ATCC 35038 by micro dilution method; format: functional
Streptococcus agalactiae = assay: Antibacterial activity against Streptococcus agalactiae isolate 52 by micro dilution method; format: functional
Escherichia coli [10] = assay: Antibacterial activity against Escherichia coli ATCC 25922 by micro dilution method; format: functional
Salmonella typhimurium = assay: Antibacterial activity against Salmonella choleraesuis ATCC 14028 by micro dilution method; format: functional, Salmonella enterica subsp. enterica serovar Typhimurium; conditions: Salmonella enterica
Klebsiella pneumoniae = assay: Antibacterial activity against Klebsiella pneumoniae ATCC 13883 by micro dilution method; format: functional
[11] = Half life in human serum; format: ADME, cell-free
Staphylococcus aureus [12] = assay: Antibacterial activity against Staphylococcus aureus isolate 10 infected in iv dosed C57BL/6 mouse measured for 10 days; format: functional; conditions: isolate 10, iv, 240 h
Staphylococcus aureus [13] = assay: Antibacterial activity against Staphylococcus aureus isolate 10 infected in C57BL/6 mouse assessed as survival rate at 2.5 mg/kg, iv measured for 10 days (reference value: 0%); format: functional; conditions: isolate 10, iv, 240 h
Staphylococcus aureus [14] = assay: Antibacterial activity against Staphylococcus aureus isolate 10 infected in C57BL/6 mouse assessed as survival rate at 3.5 mg/kg, iv measured for 10 days (reference value: 0%); format: functional; conditions: isolate 10, iv, 240 h
Staphylococcus aureus [15] = assay: Antibacterial activity against Staphylococcus aureus isolate 10 infected in C57BL/6 mouse assessed as survival rate at 4.5 mg/kg, iv measured for 10 days (reference value: 0%); format: functional; conditions: isolate 10, iv, 240 h
Staphylococcus aureus [16] = assay: Antibacterial activity against Staphylococcus aureus isolate 10 infected in C57BL/6 mouse assessed as survival rate at 5.5 mg/kg, iv measured for 10 days (reference value: 0%); format: functional; conditions: isolate 10, iv, 240 h
Staphylococcus aureus [17] = assay: Antibacterial activity against Staphylococcus aureus isolate 10 infected in C57BL/6 mouse assessed as survival rate at 6.5 mg/kg, iv measured for 10 days (reference value: 0%); format: functional; conditions: isolate 10, iv, 240 h
Staphylococcus aureus [18] = assay: Antibacterial activity against Staphylococcus aureus isolate 10 infected in C57BL/6 mouse assessed as survival rate at 7.5 mg/kg, iv measured for 10 days (reference value: 0%); format: functional; conditions: isolate 10, iv, 240 h
[19] = Elimination half life in patient with normal creatinine clearance; format: ADME; conditions: human, in vivo; read-out: beta t1/2

Structure (SMILES)	Activity (Escherichia coli [1])	MIC (Staphylococcus aureus [2]) [µg/mL]	MIC [3] [µg/mL]	MIC (Staphylococcus aureus [4]) [µg/mL]	MIC (Staphylococcus aureus [5]) [µg/mL]	MIC (Staphylococcus aureus [6]) [µg/mL]	MIC (Staphylococcus aureus [7]) [µg/mL]	MIC (Enterococcus faecium [8]) [µg/mL]	MIC (Enterococcus faecium [9]) [µg/mL]	MIC (Enterococcus faecalis) [µg/mL]	MIC (Streptococcus pneumoniae) [µg/mL]	MIC (Enterococcus gallinarum) [µg/mL]	MIC (Streptococcus agalactiae) [µg/mL]	MIC (Escherichia coli [10]) [µg/mL]	MIC (Salmonella typhimurium) [µg/mL]	MIC (Klebsiella pneumoniae) [µg/mL]	further results
CC[C@H]1OC(=O)[C@H](C)[C@@H](O[C@H]2C[C@@](C)(OC)[C@@H](O)[C@H](C)O2)[C@H](C)[C@@H](O[C@@H]2O[C@H](C)C[C@H](N(C)C)[C@H]2O)[C@](C)(O)C[C@@H](C)C(=O)[C@H](C)[C@@H](O)[C@]1(C)O	Active	–	–	–	–	–	–	–	–	–	–	–	–	–	–	–	–
CC[C@H]1OC(=O)[C@H](C)[C@@H](O[C@H]2C[C@@](C)(OC)[C@@H](OC(=O)NCCCNC(=O)[C@H]3NC(=O)[C@H]4NC(=O)[C@H](NC(=O)[C@@H]5NC(=O)[C@H](CC(N)=O)NC(=O)[C@H](NC(=O)[C@@H](CC(C)C)NC)[C@H](O)c6ccc(c(Cl)c6)Oc6cc5cc(c6O[C@@H]5O[C@H](CO)[C@@H](O)[C@H](O)[C@H]5O[C@H]5C[C@](C)(N)[C@H](O)[C@H](C)O5)Oc5ccc(cc5Cl)[C@H]4O)c4ccc(O)c(c4)-c4c(O)cc(O)cc43)[C@H](C)O2)[C@H](C)[C@@H](O[C@@H]2O[C@H](C)C[C@H](N(C)C)[C@H]2O)[C@](C)(O)C[C@@H](C)CN(C)[C@H](C)[C@H]2OC(=O)O[C@]21C	inactive	2 (≈ 0.867 µM)	2 (≈ 0.867 µM)	1 (≈ 0.434 µM)	4 (≈ 1.73 µM)	> 32	> 32	1 (≈ 0.434 µM)	> 32	32 (≈ 13.9 µM)	1 (≈ 0.434 µM)	4 (≈ 1.73 µM)	32 (≈ 13.9 µM)	> 32	> 32	> 32	–
CC[C@H]1OC(=O)[C@H](C)[C@@H](O[C@H]2C[C@@](C)(OC)[C@@H](OC(=O)NCCNC(=O)[C@H]3NC(=O)[C@H]4NC(=O)[C@H](NC(=O)[C@@H]5NC(=O)C6NC(=O)[C@@H](Cc7ccc(c(Cl)c7)Oc7cc5cc(c7O)Oc5ccc(cc5Cl)[C@H]4O)NC(=O)[C@H](N)c4ccc(O)c(c4)Oc4cc(O)cc6c4)c4ccc(O)c(c4)-c4c(O)cc(O)cc43)[C@H](C)O2)[C@H](C)[C@@H](O[C@@H]2O[C@H](C)C[C@H](N(C)C)[C@H]2O)[C@](C)(O)C[C@@H](C)CN(C)[C@H](C)[C@H]2OC(=O)O[C@]21C	inactive	1 (≈ 0.49 µM)	0.5 (≈ 0.245 µM)	0.06 (≈ 0.0294 µM)	1 (≈ 0.49 µM)	32 (≈ 15.7 µM)	> 32	0.13 (≈ 0.0637 µM)	8 (≈ 3.92 µM)	16 (≈ 7.84 µM)	0.5 (≈ 0.245 µM)	2 (≈ 0.979 µM)	32 (≈ 15.7 µM)	> 32	> 32	> 32	–
CC[C@H]1OC(=O)[C@H](C)[C@@H](O[C@H]2C[C@@](C)(OC)[C@@H](OC(=O)NCCCNC(=O)[C@H]3NC(=O)[C@H]4NC(=O)[C@H](NC(=O)[C@@H]5NC(=O)[C@H](CC(N)=O)NC(=O)[C@H](NC(=O)[C@@H](CC(C)C)NC)[C@H](O)c6ccc(c(Cl)c6)Oc6cc5cc(c6O[C@@H]5O[C@H](CO)[C@@H](O)[C@H](O)[C@H]5O[C@H]5C[C@](C)(N)[C@H](O)[C@H](C)O5)Oc5ccc(cc5Cl)[C@H]4O[C@H]4C[C@](C)(N)[C@@H](O)[C@H](C)O4)c4ccc(O)c(c4)-c4c(O)cc(O)cc43)[C@H](C)O2)[C@H](C)[C@@H](O[C@@H]2O[C@H](C)C[C@H](N(C)C)[C@H]2O)[C@](C)(O)C[C@@H](C)CN(C)[C@H](C)[C@H]2OC(=O)O[C@]21C	inactive	1 (≈ 0.408 µM)	1 (≈ 0.408 µM)	0.06 (≈ 0.0245 µM)	4 (≈ 1.63 µM)	4 (≈ 1.63 µM)	16 (≈ 6.53 µM)	0.5 (≈ 0.204 µM)	4 (≈ 1.63 µM)	8 (≈ 3.27 µM)	1 (≈ 0.408 µM)	2 (≈ 0.816 µM)	4 (≈ 1.63 µM)	> 32	> 32	> 32	–
CC[C@H]1OC(=O)[C@H](C)[C@@H](O[C@H]2C[C@@](C)(OC)[C@@H](O)[C@H](C)O2)[C@H](C)[C@@H](O[C@@H]2O[C@H](C)C[C@H](N(C)C)[C@H]2O)[C@](C)(O)C[C@@H](C)CN(C)[C@H](C)[C@@H](O)[C@]1(C)O [AZITHROMYCIN]	Active	1 (≈ 1.34 µM)	2 (≈ 2.67 µM)	1 (≈ 1.34 µM)	> 32	> 32	16 (≈ 21.4 µM)	8 (≈ 10.7 µM)	8 (≈ 10.7 µM)	> 32	8 (≈ 10.7 µM)	4 (≈ 5.34 µM)	> 32	8 (≈ 10.7 µM)	16 (≈ 21.4 µM)	16 (≈ 21.4 µM)	half-life [11]: 68 h
CN[C@H](CC(C)C)C(=O)N[C@H]1C(=O)N[C@@H](CC(N)=O)C(=O)N[C@H]2C(=O)N[C@H]3C(=O)N[C@H](C(=O)N[C@H](C(=O)O)c4cc(O)cc(O)c4-c4cc3ccc4O)[C@H](O)c3ccc(c(Cl)c3)Oc3cc2cc(c3O[C@@H]2O[C@H](CO)[C@@H](O)[C@H](O)[C@H]2O[C@H]2C[C@](C)(N)[C@H](O)[C@H](C)O2)Oc2ccc(cc2Cl)[C@H]1O [VANCOMYCIN]	–	–	0.5 (≈ 0.345 µM)	0.25 (≈ 0.173 µM)	–	8 (≈ 5.52 µM)	8 (≈ 5.52 µM)	–	> 32	> 32	2 (≈ 1.38 µM)	4 (≈ 2.76 µM)	8 (≈ 5.52 µM)	> 32	> 32	> 32	ED50 (Staphylococcus aureus [12]): 4.2 mg/kg; survival at 2.5 mg/kg (Staphylococcus aureus [13]): 30%; survival at 3.5 mg/kg (Staphylococcus aureus [14]): 40%; survival at 4.5 mg/kg (Staphylococcus aureus [15]): 50%; survival at 5.5 mg/kg (Staphylococcus aureus [16]): 70%; survival at 6.5 mg/kg (Staphylococcus aureus [17]): 90%; survival at 7.5 mg/kg (Staphylococcus aureus [18]): 100%; half-life [19]: 6 to 12 h
CC[C@H]1OC(=O)[C@H](C)[C@@H](O[C@H]2C[C@@](C)(OC)[C@@H](OC(=O)NCCNC(=O)[C@H]3NC(=O)[C@H]4NC(=O)[C@H](NC(=O)[C@@H]5NC(=O)[C@H](CC(N)=O)NC(=O)[C@H](NC(=O)[C@@H](CC(C)C)NC)[C@H](O)c6ccc(c(Cl)c6)Oc6cc5cc(c6O[C@@H]5O[C@H](CO)[C@@H](O)[C@H](O)[C@H]5O[C@H]5C[C@](C)(N)[C@H](O)[C@H](C)O5)Oc5ccc(cc5Cl)[C@H]4O)c4ccc(O)c(c4)-c4c(O)cc(O)cc43)[C@H](C)O2)[C@H](C)[C@@H](O[C@@H]2O[C@H](C)C[C@H](N(C)C)[C@H]2O)[C@](C)(O)C[C@@H](C)CN(C)[C@H](C)[C@H]2OC(=O)O[C@]21C	Active	1 (≈ 0.436 µM)	1 (≈ 0.436 µM)	1 (≈ 0.436 µM)	4 (≈ 1.74 µM)	> 32	> 32	1 (≈ 0.436 µM)	> 32	32 (≈ 14 µM)	1 (≈ 0.436 µM)	4 (≈ 1.74 µM)	32 (≈ 14 µM)	> 32	> 32	> 32	–
CC[C@H]1OC(=O)[C@H](C)[C@@H](O[C@H]2C[C@@](C)(OC)[C@@H](OC(=O)NCCNC(=O)[C@H]3NC(=O)[C@H]4NC(=O)[C@H](NC(=O)[C@@H]5NC(=O)[C@H](CC(N)=O)NC(=O)[C@H](NC(=O)[C@@H](CC(C)C)NC)[C@H](O)c6ccc(c(Cl)c6)Oc6cc5cc(c6O[C@@H]5O[C@H](CO)[C@@H](O)[C@H](O)[C@H]5O[C@H]5C[C@](C)(N)[C@H](O)[C@H](C)O5)Oc5ccc(cc5Cl)[C@H]4O[C@H]4C[C@](C)(N)[C@@H](O)[C@H](C)O4)c4ccc(O)c(c4)-c4c(O)cc(O)cc43)[C@H](C)O2)[C@H](C)[C@@H](O[C@@H]2O[C@H](C)C[C@H](N(C)C)[C@H]2O)[C@](C)(O)C[C@@H](C)CN(C)[C@H](C)[C@H]2OC(=O)O[C@]21C	Active	1 (≈ 0.411 µM)	2 (≈ 0.821 µM)	0.06 (≈ 0.0246 µM)	4 (≈ 1.64 µM)	8 (≈ 3.28 µM)	8 (≈ 3.28 µM)	1 (≈ 0.411 µM)	8 (≈ 3.28 µM)	16 (≈ 6.57 µM)	1 (≈ 0.411 µM)	4 (≈ 1.64 µM)	8 (≈ 3.28 µM)	> 32	> 32	> 32	ED50 (Staphylococcus aureus [12]): 4.7 mg/kg; survival at 2.5 mg/kg (Staphylococcus aureus [13]): 30%; survival at 3.5 mg/kg (Staphylococcus aureus [14]): 20%; survival at 4.5 mg/kg (Staphylococcus aureus [15]): 40%; survival at 5.5 mg/kg (Staphylococcus aureus [16]): 70%; survival at 6.5 mg/kg (Staphylococcus aureus [17]): 70%; survival at 7.5 mg/kg (Staphylococcus aureus [18]): 80%
